For one assay, the target named is Bcl-2 protein (histag-Bcl-2, UniProtKB P10415) (Homo sapiens (Human), UniProt P10415). As to the kind of experiment: Inhibition of Bcl-2 by the fluorescence polarisation technique. The conditions noted are these: fluorescence polarisation test; incubation for 2 hours; read-out: IC50 (nM) Bcl-2 FP. The assay is classed as binding. An excerpt:
For partial inhibitors, the percentage fluorescence polarisation inhibition for a given concentration of the test compound is indicated.
Background: Polarisation of emitted light reports the rotation of a fluorescent probe.

Assay [1] has as its system RS4; 11 leukaemia cell line. Description: In vitro cytotoxicity, Microculture Tetrazolium Assay (MTT). The assay is classed as cell-based. As to conditions: Homo sapiens, 11 cells exposed for 48 hours. The protocol:
The cytotoxicity studies were carried out on the RS4; 11 leukaemia cell line and on H146 small Cell Lung Carcinoma cell line. The cells are distributed onto microplates and exposed to the test compounds for 48 hours. The cell viability is then quantified by a colorimetric assay, the Microculture Tetrazolium Assay (Cancer Res., 1987, 47, 939-942).

Molecules are shown by their SMILES.

The values below come from US9809574B2, “Isoindoline or isoquinoline compounds, a process for their preparation and pharmaceutical compositions containing them” (LES LABORATOIRES SERVIER, priority 2013, dated 2017).

By IC50 is commonly meant the concentration that gives 50% inhibition.

Chain of Bcl-2 protein (P10415 whole entry): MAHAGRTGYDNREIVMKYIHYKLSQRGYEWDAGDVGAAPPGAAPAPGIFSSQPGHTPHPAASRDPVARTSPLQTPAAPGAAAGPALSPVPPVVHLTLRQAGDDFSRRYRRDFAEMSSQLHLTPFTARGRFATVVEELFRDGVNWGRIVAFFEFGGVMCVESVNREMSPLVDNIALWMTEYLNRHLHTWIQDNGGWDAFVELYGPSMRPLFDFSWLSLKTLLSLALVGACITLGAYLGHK

In the case of `COc1cccc(/C=C/C(=O)N2CCc3cc(-c4cc(C(=O)N(C)c5ccc(O)cc5)c(C)n4C)c(C(=O)N4Cc5ccccc5C[C@H]4CN4CCOCC4)cc3C2)c1` [Example 136, N-(4-Hydroxyphenyl)-5-{2-[(2E)-3-(3-methoxyphenyl)prop-2-enoyl]-7-[(3S)-3-(morpholin-4-ylmethyl)-1,2,3,4-tetrahydroisoquinoline-2-carbonyl]-1,2,3,4-tetrahydroisoquinolin-6-yl}-N,1,2-trimethyl-1H-pyrrole-3-carboxamide], the IC50 on Bcl-2 protein was 6.7 nM; in assay [1], 24 nM.

Regarding `Cc1c(C(=O)N(C)c2ccccc2)cc(-c2cc3c(cc2C(=O)N2Cc4ccccc4C[C@H]2CN2CCOCC2)CN(C(=O)Oc2ccc4[nH]ccc4c2)CC3)n1C` [Example 631, 1H-Indol-5-yl 6-{1,5-dimethyl-4-[methyl(phenyl)carbamoyl]-1H-pyrrol-2-yl}-7-[(3S)-3-(morpholin-4-ylmethyl)-1,2,3,4-tetrahydroisoquinoline-2-carbonyl]-1,2,3,4-tetrahydroisoquinoline-2-carboxylate], the IC50 was found to be 5.2 nM at Bcl-2 protein and 8.2 nM in assay [1].

Take `C[C@@H]1Cc2ccccc2CN1C(=O)c1cc2c(cc1-c1cc(C(=O)N(C)c3ccc(O)cc3)c3n1CCCC3)CCN(C(=O)Nc1ccccc1)C2` [Example 71, 6-{1-[(4-Hydroxyphenyl)(methyl)carbamoyl]-5,6,7,8-tetrahydroindolizin-3-yl}-7-[(3R)-3-methyl-1,2,3,4-tetrahydroisoquinoline-2-carbonyl]-N-phenyl-1,2,3,4-tetrahydroisoquinoline-2-carboxamide]: the results for the concentration for half-maximal inhibition (IC50) (on Bcl-2 protein; in assay [1]) were 3.7 nM and 9.9 nM, respectively.

Consider `CN(C(=O)c1cc(-c2cc3c(cc2C(=O)N2Cc4ccccc4C[C@H]2CN2CCOCC2)CN(C(=O)NCc2ccccc2)CC3)n2c1CCCC2)c1ccc(O)cc1` [Example 78, N-Benzyl-6-{1-[(4-hydroxyphenyl)(methyl)carbamoyl]-5,6,7,8-tetrahydroindolizin-3-yl}-7-[(3S)-3-(morpholin-4-ylmethyl)-1,2,3,4-tetrahydroisoquinoline-2-carbonyl]-1,2,3,4-tetrahydroisoquinoline-2-carboxamide], for which the IC50 at Bcl-2 protein worked out at 4.4 nM; in assay [1], 142 nM.

As for `CN(C)C(=O)c1ccc(OC(=O)N2CCc3cc(-c4cc(C(=O)N(C)c5ccc(O)cc5)c5n4CCCC5)c(C(=O)N4Cc5ccccc5C[C@H]4CN4CCOCC4)cc3C2)cc1` [Example 142, 4-(Dimethylcarbamoyl)phenyl 6-{1-[(4-hydroxyphenyl)(methyl)carbamoyl]-5,6,7,8-tetrahydroindolizin-3-yl}-7-[(3S)-3-(morpholin-4-ylmethyl)-1,2,3,4-tetrahydroisoquinoline-2-carbonyl]-1,2,3,4-tetrahydroisoquinoline-2-carboxylate], the IC50 on Bcl-2 protein was found to be 5.5 nM; in assay [1] it was 53 nM.

Consider `C[C@@H]1Cc2ccccc2CN1C(=O)c1cc2c(cc1-c1cc(C(=O)N(C)c3ccc(O)cc3)c3n1CCCC3)CN(C(=O)CCc1ccccc1)C2` [Example 15, N-(4-Hydroxyphenyl)-N-methyl-3-{6-[(3R)-3-methyl-1,2,3,4-tetrahydroisoquinoline-2-carbonyl]-2-(3-phenylpropanoyl)-2,3-dihydro-1H-isoindol-5-yl}-5,6,7,8-tetrahydroindolizine-1-carboxamide], for which the IC50 at Bcl-2 protein amounted to 19 nM; in assay [1] it was 93 nM.

Consider `Cc1c(C(=O)N(C)c2ccc(O)cc2)cc(-c2cc3c(cc2C(=O)N2Cc4ccccc4C[C@H]2CN2CCN(C)CC2)CN(C(=O)Oc2cccc(C(=O)O)c2)CC3)n1C` [Example 733, 3-(6-{4-[(4-Hydroxyphenyl)(methyl)carbamoyl]-1,5-dimethyl-1H-pyrrol-2-yl}-7-[(3S)-3-[(4-methylpiperazin-1-yl)methyl]-1,2,3,4-tetrahydroisoquinoline-2-carbonyl]-1,2,3,4-tetrahydroisoquinoline-2-carbonyloxy)benzoic acid], for which the IC50 was 1.5 nM on Bcl-2 protein and over 150 nM in assay [1].

Regarding `CCN(C(=O)c1cc(-c2cc3c(cc2C(=O)N2Cc4ccccc4C[C@H]2CN2CCOCC2)CN(C(=O)Cc2ccccc2)CC3)n(C)c1C)c1ccc(O)cc1` [Example 780, N-Ethyl-N-(4-hydroxyphenyl)-1,2-dimethyl-5-{7-[(3S)-3-(morpholin-4-ylmethyl)-1,2,3,4-tetrahydroisoquinoline-2-carbonyl]-2-(2-phenylacetyl)-1,2,3,4-tetrahydroisoquinolin-6-yl}-1H-pyrrole-3-carboxamide], the IC50 on Bcl-2 protein was 3.5 nM; in assay [1], 17 nM.

On to `CCCN(C(=O)c1cc(-c2cc3c(cc2C(=O)N2Cc4ccccc4C[C@H]2CN2CCOCC2)CN(C(=O)Oc2ccccc2)CC3)n(C)c1C)c1ccc(O)cc1` [Example 186, Phenyl 6-{4-[(4-hydroxyphenyl)(propyl)carbamoyl]-1,5-dimethyl-1H-pyrrol-2-yl}-7-[(3S)-3-(morpholin-4-ylmethyl)-1,2,3,4-tetrahydroisoquinoline-2-carbonyl]-1,2,3,4-tetrahydroisoquinoline-2-carboxylate], for which the 50% inhibitory concentration (IC50) on Bcl-2 protein was 2.5 nM; in assay [1], 4.5 nM.

Take `CC(=O)Nc1ccc(OC(=O)N2CCc3cc(-c4cc(C(=O)N(C)c5ccc(O)cc5)c5n4CCCC5)c(C(=O)N4Cc5ccccc5C[C@H]4C)cc3C2)cc1` [Example 59, 4-Acetamidophenyl 6-{1-[(4-hydroxyphenyl)(methyl)carbamoyl]-5,6,7,8-tetrahydroindolizin-3-yl}-7-[(3R)-3-methyl-1,2,3,4-tetrahydroisoquinoline-2-carbonyl]-1,2,3,4-tetrahydroisoquinoline-2-carboxylate]: the values for the IC50 (at Bcl-2 protein; in assay [1]) were 3.2 nM and 6.8 nM, respectively.

Take `CN(C(=O)c1cc(-c2cc3c(cc2C(=O)N2Cc4ccccc4C[C@H]2CN2CCOCC2)CN(C(=O)Oc2ccc(C(N)=O)cc2)CC3)n2c1CCCC2)c1ccc(O)cc1` [Example 141, 4-Carbamoylphenyl 6-{1-[(4-hydroxyphenyl)(methyl)carbamoyl]-5,6,7,8-tetrahydroindolizin-3-yl}-7-[(3S)-3-(morpholin-4-ylmethyl)-1,2,3,4-tetrahydroisoquinoline-2-carbonyl]-1,2,3,4-tetrahydroisoquinoline-2-carboxylate]: the results for the IC50 (at Bcl-2 protein; in assay [1]) were 5.9 nM and 82 nM, respectively.

For the compound `Cc1c(C(=O)N(C)c2ccccc2)cc(-c2cc3c(cc2C(=O)N2Cc4ccccc4C[C@H]2C)CN(C(=O)Oc2ccc(N(C)CCN(C)C)cc2)CC3)n1C` [Example 488, 4-{[2-(Dimethylamino)ethyl](methyl)amino}phenyl 6-{1,5-dimethyl-4-[methyl(phenyl)carbamoyl]-1H-pyrrol-2-yl}-7-[(3R)-3-methyl-1,2,3,4-tetrahydroisoquinoline-2-carbonyl]-1,2,3,4-tetrahydroisoquinoline-2-carboxylate], the IC50 on Bcl-2 protein worked out at 5.3 nM; in assay [1] it was 13 nM.

Consider `Cc1c(C(=O)N(C)c2ccc(O)cc2)cc(-c2cc3c(cc2C(=O)N2Cc4ccccc4C[C@H]2C)CN(C(=O)[C@H](O)c2ccccc2)C3)n1C` [Example 175, N-(4-Hydroxyphenyl)-5-(2-[(2R)-2-hydroxy-2-phenylacetyl]-6-{[(3R)-3-methyl-3,4-dihydroisoquinolin-2(1H)-yl]carbonyl}-2,3-dihydro-1H-isoindol-5-yl)-N,1,2-trimethyl-1H-pyrrole-3-carboxamide], for which the IC50 on Bcl-2 protein was 4.2 nM; in assay [1] it was 90 nM.
